Tested on: panelists
Assay: Sweetness enhancement taste panel (Example 2)
Type: in vivo, human
Details: 20 ppm CC-00474 + 250 ppm Rebaudioside M in acidic water (citric acid) vs control of 250 ppm Rebaudioside M and PG; served cold, sip and spit; all panelists agreed
Description: Samples were prepared with the following ingredients:
CC-00474 in PG was prepared in weighing boat and added to Reb M solution while stirring. The weighing boat was rinsed with Reb M solution. The solution was stirred visibly clear and the sample was poured into a glass bottle and stored at 4° C.
Bottles were removed from the refrigerator and about 25 ml of beverage was poured into 4 oz-plastic cups. Panelists were given mineral water to rinse their mouth before tasting and between tasting different samples. Unsalted crackers were also given to panelist to eat followed by rinsing their mouth with mineral water before tasting the next sample.
A sample of Rebaudioside M in acidic water and a sample of CC-00474 and Rebaudioside M in acidic water were given to panelists. Panelists were asked to evaluate the sweetness of samples and describe the difference of taste profile. Panelists were instructed to sip, evaluate the sweetness, and then spit the samples in cups provided for that purpose.

Compound: COc1cc(CCC(=O)c2c(O)cc(O[C@@H]3OC(CO)[C@@H](O)[C@H](O)C3O)cc2O)ccc1O (stereo partly drawn) [CC-00474, 3-methoxyphloretin-4′-O-β-D-glucoside]
- sweetness of the sample compared with Rebaudioside M only: sweeter than the sample containing Rebaudioside M only

From US12495818B2, “Dihydrochalcones from Balanophora harlandii” (The Coca-Cola Company, priority 2018, dated 2025)
